Experimental data as given in ChEMBL document CHEMBL5329194, “Design, Synthesis, and Evaluation of 18F-Labeling CYP1B1 PET Tracer Based on 2-Phenylquinazolin” (Bioorg Med Chem Lett, 2023).

What was measured:
Format in all cases: ADME
Cytochrome P450 1A1 = biological target: T1, Cytochrome P450 1A1 (Homo sapiens, UniProt P04798); assay: Inhibition of CYP1A1 (unknown origin)
T1 sequence (P04798 whole entry): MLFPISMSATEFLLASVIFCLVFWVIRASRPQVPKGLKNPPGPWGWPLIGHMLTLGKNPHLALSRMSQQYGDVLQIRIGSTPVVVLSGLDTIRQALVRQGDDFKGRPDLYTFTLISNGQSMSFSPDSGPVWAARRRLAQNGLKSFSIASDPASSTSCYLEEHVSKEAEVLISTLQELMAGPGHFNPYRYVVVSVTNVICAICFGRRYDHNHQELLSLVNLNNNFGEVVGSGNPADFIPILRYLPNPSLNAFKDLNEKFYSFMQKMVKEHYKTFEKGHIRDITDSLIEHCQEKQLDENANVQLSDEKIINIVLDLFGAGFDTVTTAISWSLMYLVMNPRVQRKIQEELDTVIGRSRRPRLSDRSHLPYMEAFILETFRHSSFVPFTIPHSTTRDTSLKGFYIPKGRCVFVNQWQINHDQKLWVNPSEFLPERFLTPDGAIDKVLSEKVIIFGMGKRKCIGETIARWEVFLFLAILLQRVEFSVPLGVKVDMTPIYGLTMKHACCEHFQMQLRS

Cytochrome P450 1A2 = biological target: T2, Cytochrome P450 1A2 (Homo sapiens, UniProt P05177); assay: Inhibition of CYP1A2 (unknown origin)
T2 sequence (P05177 whole entry): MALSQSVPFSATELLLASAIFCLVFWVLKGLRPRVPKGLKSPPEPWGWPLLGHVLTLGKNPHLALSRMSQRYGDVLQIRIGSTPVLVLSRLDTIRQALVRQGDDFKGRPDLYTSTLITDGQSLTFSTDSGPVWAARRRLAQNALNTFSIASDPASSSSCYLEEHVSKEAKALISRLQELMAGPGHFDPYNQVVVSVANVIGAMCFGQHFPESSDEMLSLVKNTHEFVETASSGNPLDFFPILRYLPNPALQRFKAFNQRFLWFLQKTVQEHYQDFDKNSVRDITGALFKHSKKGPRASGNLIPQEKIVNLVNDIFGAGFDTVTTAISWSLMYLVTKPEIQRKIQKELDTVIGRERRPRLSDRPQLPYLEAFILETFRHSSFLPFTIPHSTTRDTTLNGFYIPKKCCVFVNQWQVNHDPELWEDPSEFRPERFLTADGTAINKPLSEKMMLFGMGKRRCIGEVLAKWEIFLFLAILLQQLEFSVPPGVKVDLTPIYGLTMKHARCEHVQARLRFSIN

CYP1A2 versus CYP1B1 = assay: Selectivity ratio of IC50 for inhibition of CYP1A2 (unknown origin) to IC50 for inhibition of CYP1B1 (unknown origin); conditions: human; read-out: Ratio IC50
CYP1A1 versus CYP1B1 = assay: Selectivity ratio of IC50 for inhibition of CYP1A1 (unknown origin) to IC50 for inhibition of CYP1B1 (unknown origin); conditions: human; read-out: Ratio IC50
Cytochrome P450 1B1 = biological target: T3, Cytochrome P450 1B1 (Homo sapiens, UniProt Q16678); assay: Inhibition of CYP1B1 (unknown origin) by EROD assay
T3 sequence (Q16678 whole entry): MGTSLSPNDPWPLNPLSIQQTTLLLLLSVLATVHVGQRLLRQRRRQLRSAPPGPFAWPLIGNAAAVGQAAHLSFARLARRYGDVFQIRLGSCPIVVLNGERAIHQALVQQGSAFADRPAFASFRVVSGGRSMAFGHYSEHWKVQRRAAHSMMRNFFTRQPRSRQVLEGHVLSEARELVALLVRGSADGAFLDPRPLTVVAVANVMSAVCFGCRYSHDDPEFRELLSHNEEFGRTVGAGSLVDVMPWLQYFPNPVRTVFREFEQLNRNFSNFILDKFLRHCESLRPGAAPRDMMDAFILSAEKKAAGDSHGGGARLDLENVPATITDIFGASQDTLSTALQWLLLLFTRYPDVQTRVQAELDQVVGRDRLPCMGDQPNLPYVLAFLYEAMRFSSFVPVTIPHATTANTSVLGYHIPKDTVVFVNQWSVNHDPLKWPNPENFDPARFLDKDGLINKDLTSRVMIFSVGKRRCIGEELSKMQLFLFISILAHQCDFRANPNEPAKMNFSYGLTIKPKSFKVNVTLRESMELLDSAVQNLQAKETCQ

For `FCCOc1nc(-c2ccc(Br)cc2)nc2ccccc12`, the IC50 (Cytochrome P450 1A1) was > 1000 nM, the IC50 (Cytochrome P450 1A2) was > 1000 nM and the selectivity ratio (CYP1A2 versus CYP1B1) was > 21.1. The selectivity ratio (CYP1A1 versus CYP1B1) was > 21.1 and the IC50 (Cytochrome P450 1B1) was 47.3 nM.

With `O=c1[nH]c(-c2ccc(OCCF)cc2)nc2ccccc12` the IC50 (Cytochrome P450 1A1) was > 1000 nM, the IC50 (Cytochrome P450 1A2) was > 1000 nM and the selectivity ratio (CYP1A2 versus CYP1B1) was > 20.2. For the same compound, the selectivity ratio (CYP1A1 versus CYP1B1) was > 20.2 and the IC50 (Cytochrome P450 1B1) was 49.4 nM.

Work on `O=c1cc(-c2ccccc2)oc2c1ccc1ccccc12` [ALPHA-NAPHTHOFLAVONE] yielded an IC50 (Cytochrome P450 1A1) of 64.2 nM.
